Our source for the melting point and IC50 values is US20110251212A1, “PIPERAZINE DERIVATIVES” (SHIONOGI & CO., LTD., priority 2007, published 2011).

As usually defined, the melting point is the temperature, or range, at which the solid turns liquid.

Data set [1] has as its target T1, mouse NMDA receptor (NR1 subunit and NR2B subunit co-expressed in HEK293 cells) (Mus musculus, UniProt P35438+Q01097).
T1 construct: expressed in transfected cells; host or cells: HEK293 cells, transient, pcDNA 3.1 plasmids
The experiment in a line: Expression of NMDA receptor and measurement of Ca ion flow in amount (HEK293 cells, Fluo-3/AM, FDSS3000). The conditions noted are these: Ca ion flow in induced with glutamic acid 20 μM/glycine 2 μM, read-out: Ca2+ 1050. The format is cell-based. Here is the method:
Test Example 2 Expression of NMDA receptor and measurement of Ca ion flow in amount
A complementary DNA (cDNA) of a mouse NMDA receptor subunit was transiently introduced into HEK293 cells and, after one day from introduction, change in a glutamic acid/glycine-induced intracellular Ca amount was measured using a Ca ion reactive fluorescent dye.
HEK293 cells were cultured and passaged using a modified Dulbecco's Eagle medium (DMEM, low glucose).
20,000/well of HEK293 cells were seeded on a 96-well plate, a NR1 subunit and a NR2B subunit of a NMDA receptor incorporated into pcDNA 3.1 plasmid were transiently introduced into cells, and co-expression of subunits was performed. An introduction amount of a DNA was such that the NR1 subunit was 0.025 μg, and the NR2B subunit was 0.075 μg per well. For cells after introduction, cell death was inhibited using 50 μM of a NMDA receptor antagonist MK-801.
For adjusting a test compound and washing cells, Krebs Ringer Hepes buffer (KRH, Ca: 5 mM) was used.
One day after introduction, the NMDA receptor antagonist MK-801 was washed off using the KRH buffer, and a Ca ion indicative fluorescent dye Fluo-3/AM was made to be taken into cells. Flow in of a Ca ion was induced with glutamic acid 20 μM/glycine 2 μM. Change in a fluorescence amount due to intracellular Ca ion flow in was measured at excitation 480 nm using a fluorescence imaging system FDSS3000.
From a measured value of the test compound, a Ca ion flow in inhibitory rate (%) was obtained by the following equation, and a dose at which flow in is 50% inhibited (IC50) was calculated.
Ca ion flow in inhibitory rate(%)=100−[(fluorescence amount in presence of test compound−background fluorescence amount)/(total fluorescence amount[…]background fluorescence amount)]×100

For data set [2], the target named is T2, NMDA Receptor (NR1/NR2B Receptor) (Rattus norvegicus, UniProt P35439+Q00960).
T2 construct: this was used as a membrane specimen in an experiment; from tissue; host or cells: rat cerebral cortex membranes
T2 sequence (Q00960 27-1482, other chains not shown): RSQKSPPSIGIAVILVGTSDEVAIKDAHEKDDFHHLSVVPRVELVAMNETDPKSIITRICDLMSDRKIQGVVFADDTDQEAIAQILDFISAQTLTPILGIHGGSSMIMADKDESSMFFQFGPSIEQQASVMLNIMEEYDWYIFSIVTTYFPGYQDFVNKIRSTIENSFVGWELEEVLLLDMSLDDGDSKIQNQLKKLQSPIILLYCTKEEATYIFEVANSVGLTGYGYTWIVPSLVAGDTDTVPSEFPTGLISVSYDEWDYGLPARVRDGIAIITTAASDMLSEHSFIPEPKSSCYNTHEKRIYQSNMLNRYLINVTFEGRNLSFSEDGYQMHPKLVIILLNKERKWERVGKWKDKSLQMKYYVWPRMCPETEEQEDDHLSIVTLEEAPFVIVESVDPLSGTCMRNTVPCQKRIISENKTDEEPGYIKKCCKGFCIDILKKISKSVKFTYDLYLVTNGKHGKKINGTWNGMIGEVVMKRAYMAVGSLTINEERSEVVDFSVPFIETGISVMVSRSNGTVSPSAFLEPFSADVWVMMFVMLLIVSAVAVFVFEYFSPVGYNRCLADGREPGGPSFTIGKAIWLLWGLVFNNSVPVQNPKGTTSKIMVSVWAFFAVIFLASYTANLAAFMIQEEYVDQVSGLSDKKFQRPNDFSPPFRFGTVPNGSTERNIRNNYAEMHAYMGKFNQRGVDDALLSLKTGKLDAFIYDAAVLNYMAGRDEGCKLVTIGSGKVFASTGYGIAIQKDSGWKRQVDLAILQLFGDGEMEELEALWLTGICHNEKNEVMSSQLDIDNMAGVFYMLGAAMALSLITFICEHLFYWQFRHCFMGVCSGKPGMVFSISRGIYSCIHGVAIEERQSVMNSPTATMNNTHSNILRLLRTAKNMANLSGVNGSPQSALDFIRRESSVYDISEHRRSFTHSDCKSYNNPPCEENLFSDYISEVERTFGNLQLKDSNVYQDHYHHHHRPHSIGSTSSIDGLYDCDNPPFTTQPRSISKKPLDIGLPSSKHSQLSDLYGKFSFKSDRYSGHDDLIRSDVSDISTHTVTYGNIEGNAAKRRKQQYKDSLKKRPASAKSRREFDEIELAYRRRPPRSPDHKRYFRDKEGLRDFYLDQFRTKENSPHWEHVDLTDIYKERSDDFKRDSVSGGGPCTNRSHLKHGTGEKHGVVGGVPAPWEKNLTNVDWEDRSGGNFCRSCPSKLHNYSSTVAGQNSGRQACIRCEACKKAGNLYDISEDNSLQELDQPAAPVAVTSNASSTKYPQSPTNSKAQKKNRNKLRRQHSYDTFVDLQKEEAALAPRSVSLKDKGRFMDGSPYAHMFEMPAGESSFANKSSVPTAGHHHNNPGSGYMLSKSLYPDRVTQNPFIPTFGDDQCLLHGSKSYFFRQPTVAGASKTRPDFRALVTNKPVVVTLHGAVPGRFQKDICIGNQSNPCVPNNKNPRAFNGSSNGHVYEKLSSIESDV
The experiment in a line: Experiment of binding to NMDA receptor (NR1/NR2B receptor), [3H]-Ifenprodil competition, rat cerebral cortex membrane. To be noted: [3H]-Ifenprodil 5 nM, GBR-12909 3 μM, ice temperature 120 minutes. Here is the method: Using Ifenprodil which is a NR1/NR2B subtype receptor-specific antagonist as a ligand, an experiment of receptor competition with a test compound was performed.
A male Slc:Wistar rat was used as an animal, a decapitated brain was isolated, and cerebral cortex was fractionated. The cerebral cortex was homogenized with a 20-fold amount of an ice-cooled 50 mM Tris/HCl buffer (pH 7.4), and centrifuged at 4° C. and 27,500×g for 10 minutes. The resulting precipitate was suspended in the same buffer, and the suspension was centrifuged again. This procedure was repeated three times, and the resulting precipitate was suspended in a buffer, and stored at −80° C. Immediately before an experiment, the frozen suspension was thawed at room temperature, and centrifuged at 4° C. and 27,500×g for 10 minutes, and the resulting precipitate was suspended in a buffer. The suspension was further diluted 10-fold with a buffer, and this was used as a membrane specimen in an experiment.
In a binding experiment, to 470 μl of the membrane specimen were added 10 μl of different concentrations of a test compound, 10 μl of a labeled ligand [3H]-Ifenprodil and 10 μl of GBR-12909, and this was incubated at an ice temperature for 120 minutes. A concentration of [3H]-Ifenprodil of the labeled ligand was finally 5 nM, and a concentration of GBR-12909 was finally 3 μM. For measuring a total binding amount, DMSO as a solvent was used and, for measuring a non-specific binding amount, 100 μM of Ifenprodil was used. In addition, GBR-12909 was added in order to block binding of [3H]-Ifenprodil to a non-polyamine-sensitive site. After incubation, a bound body and a free body were separated using a Whatman GF/C filter (manufactured by Whatman), and the filter was washed with 2.5 ml of an ice-cooled buffer four times. The filter was immersed in a liquid scintillation (Clear-sol I, manufactured by Nacalai tesque) in a vial bottle, and radioactivity (dpm) was measured with a liquid scintillation counter. From a measured value, a binding inhibition rate (%) was obtained by the following equation, and a dose at which binding is inhibited 50% (IC50) was calculated. A formula of GBR-12909 (Vanoxerine) is shown below.
Binding inhibition rate(%)=100−[(binding amount in presence of test compound−non-specific amount)/(total binding amount−non-specific binding amount)]×100

T1 sequence (Q01097 27-1482, other chains not shown): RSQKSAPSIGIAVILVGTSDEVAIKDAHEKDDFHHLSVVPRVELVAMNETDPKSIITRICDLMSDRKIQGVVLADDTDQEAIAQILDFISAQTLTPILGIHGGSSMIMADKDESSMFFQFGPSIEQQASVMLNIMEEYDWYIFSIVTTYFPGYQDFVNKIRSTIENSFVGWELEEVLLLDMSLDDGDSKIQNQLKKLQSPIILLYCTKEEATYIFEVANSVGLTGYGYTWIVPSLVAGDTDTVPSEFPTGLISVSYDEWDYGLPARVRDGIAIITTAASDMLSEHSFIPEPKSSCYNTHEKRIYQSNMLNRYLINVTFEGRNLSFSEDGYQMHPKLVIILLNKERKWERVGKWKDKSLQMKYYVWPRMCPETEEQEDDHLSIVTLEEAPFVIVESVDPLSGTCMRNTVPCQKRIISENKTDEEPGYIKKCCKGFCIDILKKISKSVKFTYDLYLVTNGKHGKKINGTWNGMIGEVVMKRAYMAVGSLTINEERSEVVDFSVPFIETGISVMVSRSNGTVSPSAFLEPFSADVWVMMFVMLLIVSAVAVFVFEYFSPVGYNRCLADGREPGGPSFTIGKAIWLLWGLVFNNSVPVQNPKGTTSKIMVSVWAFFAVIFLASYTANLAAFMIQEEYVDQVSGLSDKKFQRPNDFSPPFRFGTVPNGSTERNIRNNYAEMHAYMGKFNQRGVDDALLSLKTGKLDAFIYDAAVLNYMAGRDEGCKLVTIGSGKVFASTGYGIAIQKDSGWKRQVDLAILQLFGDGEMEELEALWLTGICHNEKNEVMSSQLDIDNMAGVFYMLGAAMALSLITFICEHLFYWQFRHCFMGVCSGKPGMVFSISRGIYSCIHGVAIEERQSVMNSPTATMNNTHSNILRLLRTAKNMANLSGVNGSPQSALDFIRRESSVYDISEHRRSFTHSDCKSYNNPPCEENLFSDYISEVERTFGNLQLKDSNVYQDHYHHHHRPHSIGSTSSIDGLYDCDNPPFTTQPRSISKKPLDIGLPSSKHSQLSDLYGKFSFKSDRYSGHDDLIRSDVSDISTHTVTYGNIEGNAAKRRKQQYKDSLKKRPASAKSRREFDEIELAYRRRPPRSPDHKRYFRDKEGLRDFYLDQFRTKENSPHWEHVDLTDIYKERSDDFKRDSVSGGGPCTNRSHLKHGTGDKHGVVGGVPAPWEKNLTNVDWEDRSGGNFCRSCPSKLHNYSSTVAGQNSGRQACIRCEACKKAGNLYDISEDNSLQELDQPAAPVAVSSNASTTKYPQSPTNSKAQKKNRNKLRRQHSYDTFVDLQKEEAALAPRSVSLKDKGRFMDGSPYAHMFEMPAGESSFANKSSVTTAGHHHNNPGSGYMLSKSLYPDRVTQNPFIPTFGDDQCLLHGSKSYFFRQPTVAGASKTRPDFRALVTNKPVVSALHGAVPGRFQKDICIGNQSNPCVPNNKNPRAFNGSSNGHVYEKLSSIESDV

`CC(Nc1ccc2[nH]c(=O)oc2c1)C(=O)N1CCN(c2ccc(Cl)c(F)c2)CC1` (centres unmarked) [Compound I-4] registered a melting point of 223 to 225 °C.
Same read-out and setting: to `C[C@@H]1CN(c2ccc(F)cc2)C[C@H](C)N1C(=O)C(=O)Nc1ccc2[nH]c(=O)oc2c1` [Compound I-5] belongs 245 to 246 °C.
The compound `COc1c(F)cc(N2CCN(C(=O)CNc3ccc4[nH]c(=O)oc4c3)CC2)cc1F` [Compound I-7] yielded a melting point of 194 to 196 °C. Moreover, in data set [1], the IC50 is 89 nM.
For the compound `C[C@@H]1CN(c2ccc(Cl)c(F)c2)CCN1C(=O)CNc1ccc2[nH]c(=O)oc2c1` [Compound I-6], the melting point fell in the range of 224 to 226 °C. Further, the IC50 in data set [1] stood at 20 nM. The same compound came in with an IC50 in data set [2] of 0.026 µM.
In turn, `O=C(CNc1ccc2[nH]c(=O)oc2c1)N1CCN(c2ccc(F)c(Cl)c2)CC1` [Compound I-3] came in with a melting point of 130 to 132 °C.
Consider `O=C(CN1CCN(c2ccc(Cl)cc2)CC1=O)Nc1ccc2[nH]c(=O)oc2c1` [Compound I-67], for which the melting point was in the range of 223 to 225 °C.
On the same count and under the same terms, to `O=C(CCNc1ccc2[nH]c(=O)oc2c1)N1CCN(c2ccc(Cl)c(F)c2)CC1` [Compound I-2] belongs 187 to 189 °C; to `Cc1cc(N2CCN(C(=O)CNc3ccc4[nH]c(=O)oc4c3)C[C@H]2C)ccc1Cl` [Compound I-63], 112 to 114 °C.
As for `Cc1cc(N2CCN(C(=O)C(=O)Nc3ccc4[nH]c(=O)oc4c3)[C@H](C)C2)ccc1Cl` [Compound I-40], the melting point was in the range of 123 to 124 °C. For the same compound, in data set [1], the IC50 was found to be 14 nM. The compound also registered an IC50 in data set [2] of 0.04 µM.
On the same counts, the results for `O=C(CNc1ccc2[nH]c(=O)oc2c1)N1CCN(c2ccc(Cl)c(F)c2)CC1` [Compound I-1] are 136 to 138 °C, 49 nM and 0.149 µM.
Regarding `C[C@@H]1CN(c2ccc(Cl)cc2)CCN1C(=O)CNc1ccc2[nH]c(=O)oc2c1` [Compound I-15], the IC50 was 5 nM in data set [1] and 0.039 µM in data set [2].
For `Cc1ccc(N2CCN(C(=O)C(=O)Nc3ccc4[nH]c(=O)oc4c3)[C@H](C)C2)cc1Cl` [Compound I-38], the IC50 in data set [1] is 7 nM; in data set [2] it was 0.041 µM.
On the same counts, the results for `Cc1ccc(N2CCN(C(=O)C(=O)Nc3ccc4[nH]c(=O)oc4c3)C[C@H]2C)cc1Cl` [Compound I-39] are 9 nM and 0.08 µM.
